Reference: patent publication US8940897B2, “1,3,4-oxadiazole and 1,3,4-thiadiazole β-lactamase inhibitors” (priority 2012, dated 2015)
Structures can show the parent of a compound that is named as a salt.

Columns and labels:
[1] = test system: bacterial strains that express the class D cephalosporinase OXA-15; experiment: Synergy MIC / standard BLI potentiation MIC assay, strains expressing OXA-15;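 further: more active means a lower MIC or sMIC than Avibactam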; assay type: cell-based, E. coli; conditions: in the presence of a β-lactam; comparator Avibactam (CCC)
Method in brief: (§1)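 CLSI broth microdilution in CAMHB, ~10^5 CFU/mL, 18–20 h at 37 °C with aeration; engineered E. coli kept on 25 μg/mL tetracycline. Potentiation: β-lactam 128–0.13 μg/mL with BLI fixed at 4 μg/mL; synergy MIC: BLI serially diluted with fixed β-lactam. MIC is the lowest concentration without visible turbidity.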

[2] = test system: bacterial strains that express KPC β-lactamases; experiment: Synergy MIC / standard BLI potentiation MIC assay, strains expressing KPC β-lactamases; assay type: cell-based; conditions: for at least one KPC strain and/or a better spectrum of activity against KPC strains than Avibactam; in the presence of a β-lactam
Method in brief: as §1

Structure (SMILES)	activity against bacterial strains that express OXA-15 β-lactamase compared with Avibactam [1]	activity against bacterial strains that express KPC β-lactamase compared with Avibactam [2]
N[C@H]1C[C@H](c2nnc([C@@H]3CC[C@@H]4CN3C(=O)N4OS(=O)(=O)O)s2)C1 [Compound 783, (2S,5R)-2-(5-((1r,3S)-3-aminocyclobutyl)-1,3,4-thiadiazol-2-yl)-7-oxo-1,6-diazabicyclo[3.2.1]octan-6-yl hydrogen sulfate]	more active than Avibactam	more active than Avibactam
N=C(N)N[C@H]1C[C@@H](c2nnc([C@@H]3CC[C@@H]4CN3C(=O)N4OS(=O)(=O)O)s2)C1 [Compound 784, (2S,5R)-2-(5-((1s,3R)-3-guanidinocyclobutyl)-1,3,4-thiadiazol-2-yl)-7-oxo-1,6-diazabicyclo[3.2.1]octan-6-yl hydrogen sulfate]	more active than Avibactam	more active than Avibactam
N=C(N)NCCc1nnc([C@@H]2CC[C@@H]3CN2C(=O)N3OS(=O)(=O)O)s1 [Compound 794, (2S,5R)-2-(5-(2-guanidinoethyl)-1,3,4-thiadiazol-2-yl)-7-oxo-1,6-diazabicyclo[3.2.1]octan-6-yl hydrogen sulfate]	more active than Avibactam	more active than Avibactam
N[C@H]1C[C@@H](c2nnc([C@@H]3CC[C@@H]4CN3C(=O)N4OS(=O)(=O)O)s2)C1 [Compound 795, (2S,5R)-2-(5-((1s,3R)-3-aminocyclobutyl)-1,3,4-thiadiazol-2-yl)-7-oxo-1,6-diazabicyclo[3.2.1]octan-6-yl hydrogen sulfate]	more active than Avibactam	more active than Avibactam
